Measured values from PubChem BioAssay AID248 (DTP/NCI, 2004).
Several values for one entry are separate records, joined by “and”; a condition that tells them apart may be missing. Identical values can stand only once. Inconclusive results and toxic doses are left out.

System: L1210 leukemia ip in BDF1 mice, survival T/C
Experiment: NCI In Vivo Anticancer Drug Screen. Data for tumor model L1210 Leukemia (intraperitoneal) in B6D2F1 (BDF1) mice
Conditions: endpoint: mean survival time, higher = longer survival
How it was run: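 Transplanted-tumor mice were given test agent; controls received vehicle only. Survival readings from the two groups were divided (treated over control).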

[1] = dose: 50.0 mg/kg/injection, schedule: Q01DX009 (ip), vehicle: Klucel (hydroxypropylcellulose) (HPC)
[2] = dose: 100.0 mg/kg/injection, schedule: Q01DX009 (ip), vehicle: Klucel (hydroxypropylcellulose) (HPC)
[3] = dose: 100.0 mg/kg/injection, schedule: Q04DX003 (ip), vehicle: saline with Tween-80
[4] = dose: 200.0 mg/kg/injection, schedule: Q04DX003 (ip), vehicle: saline with Tween-80
[5] = dose: 100.0 mg/kg/injection, schedule: Q01DX009 (ip), vehicle: saline
[6] = dose: 200.0 mg/kg/injection, schedule: Q01DX009 (ip), vehicle: saline
[7] = dose: 400.0 mg/kg/injection, schedule: Q01DX009 (ip), vehicle: saline
[8] = dose: 400.0 mg/kg/injection, schedule: Q04DX003 (ip), vehicle: saline with Tween-80
[9] = dose: 100.0 mg/kg/injection, schedule: Q04DX003 (ip), vehicle: saline
[10] = dose: 200.0 mg/kg/injection, schedule: Q04DX003 (ip), vehicle: saline
[11] = dose: 400.0 mg/kg/injection, schedule: Q04DX003 (ip), vehicle: saline

C[n+]1ccc(NC(=O)c2ccc(NC(=O)c3cccc(C(=O)Nc4ccc(C(=O)Nc5cc[n+](C)cc5)cc4)c3)cc2)cc1
T/C (dose: 1.25 mg/kg/injection, schedule: Q01DX Z (ip), vehicle: carboxymethylcellulose (CMC)): 108 % of control | T/C (dose: 2.5 mg/kg/injection, schedule: Q01DX Z (ip), vehicle: carboxymethylcellulose (CMC)): 113 % of control | T/C (dose: 5.0 mg/kg/injection, schedule: Q01DX Z (ip), vehicle: carboxymethylcellulose (CMC)): 108 % of control | T/C (dose: 10.0 mg/kg/injection, schedule: Q01DX Z (ip), vehicle: carboxymethylcellulose (CMC)): 111 % of control | T/C (dose: 20.0 mg/kg/injection, schedule: Q01DX Z (ip), vehicle: carboxymethylcellulose (CMC)): 161 % of control | T/C (dose: 40.0 mg/kg/injection, schedule: Q01DX Z (ip), vehicle: carboxymethylcellulose (CMC)): 166 % of control | T/C (dose: 62.0 mg/kg/injection, schedule: Q01DX Z (oral), vehicle: carboxymethylcellulose (CMC)): 97 % of control | T/C (dose: 80.0 mg/kg/injection, schedule: Q01DX Z (ip), vehicle: carboxymethylcellulose (CMC)): 188 % of control | T/C (dose: 125.0 mg/kg/injection, schedule: Q01DX Z (oral), vehicle: carboxymethylcellulose (CMC)): 98 % of control | T/C (dose: 160.0 mg/kg/injection, schedule: Q01DX Z (ip), vehicle: carboxymethylcellulose (CMC)): 153 % of control | T/C (dose: 250.0 mg/kg/injection, schedule: Q01DX Z (oral), vehicle: carboxymethylcellulose (CMC)): 112 % of control | T/C (dose: 500.0 mg/kg/injection, schedule: Q01DX Z (oral), vehicle: carboxymethylcellulose (CMC)): 108 % of control

COc1cccc(/C=N/NC(=O)c2ccncc2)c1OC
T/C (dose: 25.0 mg/kg/injection, schedule: Q01DX009 (ip), vehicle: Klucel (hydroxypropylcellulose) (HPC)): 97 % of control | T/C [1]: 101 % of control | T/C [2]: 92 % of control and 105 % of control

Cc1ccc(N=NN(C)C)cc1
T/C (dose: 12.5 mg/kg/injection, schedule: Q01DX009 (ip), vehicle: saline with Tween-80): 97 % of control | T/C (dose: 25.0 mg/kg/injection, schedule: Q01DX009 (ip), vehicle: saline with Tween-80): 103 % of control | T/C (dose: 25.0 mg/kg/injection, schedule: Q04DX003 (ip), vehicle: saline with Tween-80): 105 % of control | T/C (dose: 26.6 mg/kg/injection, schedule: Q01DX Z (ip), vehicle: methylcellulose (MC)): 104 % of control | T/C (dose: 31.25 mg/kg/injection, schedule: Q01DX001 (ip), vehicle: saline with Tween-80): 108 % of control | T/C (dose: 40.0 mg/kg/injection, schedule: Q01DX Z (ip), vehicle: methylcellulose (MC)): 118 % of control | T/C (dose: 50.0 mg/kg/injection, schedule: Q01DX009 (ip), vehicle: saline with Tween-80): 103 % of control | T/C (dose: 50.0 mg/kg/injection, schedule: Q04DX003 (ip), vehicle: saline with Tween-80): 103 % of control | T/C (dose: 62.5 mg/kg/injection, schedule: Q01DX001 (ip), vehicle: saline with Tween-80): 110 % of control | T/C (dose: 90.0 mg/kg/injection, schedule: Q01DX Z (ip), vehicle: methylcellulose (MC)): 165 % of control | T/C (dose: 100.0 mg/kg/injection, schedule: Q01DX009 (ip), vehicle: saline with Tween-80): 104 % of control | T/C [3]: 110 % of control | T/C (dose: 180.0 mg/kg/injection, schedule: Q01DX Z (ip), vehicle: carboxymethylcellulose (CMC)): 102 % of control | T/C [4]: 109 % of control

NC(=O)COc1ccc(F)cc1F
T/C (dose: 100.0 mg/kg/injection, schedule: Q04DX002 (ip), vehicle: saline with Tween-80): 101 % of control | T/C (dose: 200.0 mg/kg/injection, schedule: Q04DX002 (ip), vehicle: saline with Tween-80): 97 % of control | T/C (dose: 400.0 mg/kg/injection, schedule: Q04DX002 (ip), vehicle: saline with Tween-80): 93 % of control

CN(C)C(=N)[Se]
T/C (dose: 6.25 mg/kg/injection, schedule: Q01DX009 (ip), vehicle: saline): 97 % of control | T/C (dose: 12.5 mg/kg/injection, schedule: Q01DX009 (ip), vehicle: saline): 92 % of control

C#CC(=O)OC
T/C (dose: 0.78 mg/kg/injection, schedule: Q01DX009 (ip), vehicle: saline): 103 % of control | T/C (dose: 1.56 mg/kg/injection, schedule: Q01DX009 (ip), vehicle: saline): 103 % of control | T/C (dose: 1.56 mg/kg/injection, schedule: Q04DX003 (ip), vehicle: saline): 103 % of control | T/C (dose: 3.12 mg/kg/injection, schedule: Q01DX009 (ip), vehicle: saline): 97 % of control | T/C (dose: 3.12 mg/kg/injection, schedule: Q04DX003 (ip), vehicle: saline): 95 % of control | T/C (dose: 4.6 mg/kg/injection, schedule: Q01DX009 (ip), vehicle: saline): 98 % of control | T/C (dose: 6.25 mg/kg/injection, schedule: Q04DX003 (ip), vehicle: saline): 94 % of control | T/C (dose: 7.0 mg/kg/injection, schedule: Q01DX009 (ip), vehicle: saline): 93 % of control | T/C (dose: 10.0 mg/kg/injection, schedule: Q01DX009 (ip), vehicle: saline): 101 % of control

C(=C\c1ccnc2ccccc12)/c1ccccc1
T/C [5]: 101 % of control | T/C [3]: 89 % of control | T/C [6]: 101 % of control | T/C [4]: 94 % of control | T/C [7]: 100 % of control | T/C [8]: 89 % of control

Cc1c(C)c([N+](=O)[O-])c(I)c(C)c1[N+](=O)[O-]
T/C (dose: 75.0 mg/kg/injection, schedule: Q01DX009 (ip), vehicle: Klucel (hydroxypropylcellulose) (HPC)): 98 % of control | T/C (dose: 75.0 mg/kg/injection, schedule: Q04DX003 (ip), vehicle: Klucel (hydroxypropylcellulose) (HPC)): 102 % of control | T/C (dose: 150.0 mg/kg/injection, schedule: Q01DX009 (ip), vehicle: Klucel (hydroxypropylcellulose) (HPC)): 98 % of control | T/C (dose: 150.0 mg/kg/injection, schedule: Q04DX003 (ip), vehicle: Klucel (hydroxypropylcellulose) (HPC)): 102 % of control | T/C (dose: 300.0 mg/kg/injection, schedule: Q01DX009 (ip), vehicle: Klucel (hydroxypropylcellulose) (HPC)): 97 % of control | T/C (dose: 300.0 mg/kg/injection, schedule: Q04DX003 (ip), vehicle: Klucel (hydroxypropylcellulose) (HPC)): 98 % of control

CC(=O)Nc1c(C)cccc1[N+](=O)[O-]
T/C (dose: 100.0 mg/kg/injection, schedule: Q01DX001 (ip), vehicle: saline with Tween-80): 94 % of control

CC(O)CC[P+](c1ccccc1)(c1ccccc1)c1ccccc1 (stereo unspecified)
T/C (dose: 75.0 mg/kg/injection, schedule: Q01DX001 (ip), vehicle: other): 101 % of control | T/C (dose: 150.0 mg/kg/injection, schedule: Q01DX001 (ip), vehicle: other): 93 % of control

NCCCCC(N)C(=O)NCCCCCCN(CCCCCCNC(=O)C(N)CCCCN)C(=O)C(N)CCCCN (stereo unspecified)
T/C (dose: 100.0 mg/kg/injection, schedule: Q01DX001 (ip), vehicle: saline): 92 % of control

CN(C)C(=O)NNC(=O)N(C)C
T/C [5]: 103 % of control | T/C [9]: 94 % of control | T/C [6]: 95 % of control | T/C [10]: 96 % of control | T/C [7]: 95 % of control | T/C [11]: 100 % of control

Cn1c2c(c3ccccc31)=NN1CCN=C1N=2
T/C (dose: 6.25 mg/kg/injection, schedule: Q04DX002 (ip), vehicle: saline): 107 % of control | T/C (dose: 12.5 mg/kg/injection, schedule: Q04DX002 (ip), vehicle: saline): 103 % of control

CCCOC1=C(Br)C(=O)c2ccccc2C1=O
T/C (dose: 15.0 mg/kg/injection, schedule: Q01DX001 (ip), vehicle: carboxymethylcellulose (CMC)): 98 % of control | T/C (dose: 30.0 mg/kg/injection, schedule: Q01DX001 (ip), vehicle: carboxymethylcellulose (CMC)): 97 % of control

CC1(C)CC(=O)C(C)(CCc2ccccc2)C(=O)C1
T/C [3]: 97 % of control | T/C [4]: 98 % of control | T/C [8]: 95 % of control

Clc1ccc(C(Cl)(Cl)Cl)cc1Cl
T/C [1]: 110 % of control | T/C [2]: 103 % of control | T/C (dose: 100.0 mg/kg/injection, schedule: Q04DX003 (ip), vehicle: Klucel (hydroxypropylcellulose) (HPC)): 106 % of control | T/C (dose: 200.0 mg/kg/injection, schedule: Q01DX009 (ip), vehicle: Klucel (hydroxypropylcellulose) (HPC)): 98 % of control | T/C (dose: 200.0 mg/kg/injection, schedule: Q04DX003 (ip), vehicle: Klucel (hydroxypropylcellulose) (HPC)): 106 % of control

OCc1cccc(F)c1
T/C [5]: 98 % of control | T/C [9]: 105 % of control | T/C [6]: 95 % of control | T/C [10]: 102 % of control | T/C [7]: 98 % of control | T/C [11]: 104 % of control

O=C1OC(=O)C2CCC12 (stereo unspecified)
T/C (dose: 75.0 mg/kg/injection, schedule: Q01DX001 (ip), vehicle: saline): 93 % of control | T/C [5]: 91 % of control | T/C [9]: 98 % of control | T/C (dose: 150.0 mg/kg/injection, schedule: Q01DX001 (ip), vehicle: saline): 101 % of control | T/C [6]: 93 % of control | T/C [10]: 101 % of control | T/C (dose: 300.0 mg/kg/injection, schedule: Q01DX001 (ip), vehicle: saline): 112 % of control | T/C [11]: 98 % of control
